Experimental data reported in ChEMBL document CHEMBL1201862, “PubChem BioAssay data set” (2004).
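A five-concentration, 48-hour dose response in 96-well plates underlies each endpoint, interpolated linearly between surrounding concentrations. At the GI50, growth is halved.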 Calls of active or inactive are those of the source. Rule as the data show it: active = GI50 up to about 1.1 µM and inactive = higher.

What was measured:
Assay in all cases: DTP human tumour cell line panel, 48 h
[1] = tested on: SK-OV-3
[2] = tested on: OVCAR-3
[3] = tested on: OVCAR-5
[4] = tested on: NCI/ADR-RES
[5] = tested on: A549
[6] = tested on: MDA-MB-231
[7] = tested on: SN12C
[8] = tested on: HOP-62
[9] = tested on: UACC-62
[10] = tested on: RPMI-8226
[11] = tested on: SF-539
[12] = tested on: HL-60
[13] = tested on: SNB-19
[14] = tested on: OVCAR-8
[15] = tested on: LOX IMVI
[16] = tested on: MOLT-4
[17] = tested on: MDA-MB-435
[18] = tested on: DU-145
[19] = tested on: ACHN
[20] = tested on: EKVX

SMILES | GI50 [1] | GI50 [2] | GI50 [3] | GI50 [4] | GI50 [5] | GI50 [6] | GI50 [7] | GI50 [8] | GI50 [9] | GI50 [10] | GI50 [11] | GI50 [12] | GI50 [13] | GI50 [14] | GI50 [15] | GI50 [16] | GI50 [17] | GI50 [18] | GI50 [19] | GI50 [20]
COc1c(O)c(O)c2c(c1O)C(=O)c1cc(C)cc(O)c1C2=O | 36.8 µM (inactive) | 26.4 µM (inactive) | 43 µM (inactive) | 16.7 µM (inactive) | 45.9 µM (inactive) | 12.2 µM (inactive) | 50.7 µM (inactive) | 56.5 µM (inactive) | 15.3 µM (inactive) | 35.2 µM (inactive) | > 66.5 µM (inactive) | 50 µM (inactive) | 65.3 µM (inactive) | 20.1 µM (inactive) | 24.1 µM (inactive) | 15.4 µM (inactive) | 53.8 µM (inactive) | 77.1 µM (inactive) | 40.3 µM (inactive) | 22.4 µM (inactive)
Cc1ccccc1-n1c(=O)c2ncn(C3CCCO3)c2n(-c2ccccc2C)c1=S (stereo not given) | > 100 µM (inactive) | > 100 µM (inactive) | > 100 µM (inactive) | > 100 µM (inactive) | > 100 µM (inactive) | > 100 µM (inactive) | > 100 µM (inactive) | > 100 µM (inactive) | > 100 µM (inactive) | > 100 µM (inactive) | > 100 µM (inactive) | > 100 µM (inactive) | > 100 µM (inactive) | > 100 µM (inactive) | > 100 µM (inactive) | > 100 µM (inactive) | > 100 µM (inactive) | > 100 µM (inactive) | > 100 µM (inactive) | > 100 µM (inactive)
CC1(C)CC2=NOS3=C2C(=NO3)C1c1ccccn1 (stereo not given) | > 100 µM (inactive) | 31 µM (inactive) | > 100 µM (inactive) | > 100 µM (inactive) | 83.2 µM (inactive) | > 100 µM (inactive) | > 100 µM (inactive) | > 100 µM (inactive) | 44.1 µM (inactive) | > 100 µM (inactive) | 64 µM (inactive) | 24.3 µM (inactive) | > 100 µM (inactive) | 39.5 µM (inactive) | 36.1 µM (inactive) | 34.3 µM (inactive) | 18.6 µM (inactive) | > 100 µM (inactive) | 74.8 µM (inactive) | > 100 µM (inactive)
CCC1(O)C=CC(=O)C=C1 | 38.5 µM (inactive) | 27.5 µM (inactive) | 33.1 µM (inactive) | 24 µM (inactive) | 31.6 µM (inactive) | 17.2 µM (inactive) | 32.9 µM (inactive) | 27.7 µM (inactive) | 17.2 µM (inactive) | 32.4 µM (inactive) | 0.0422 µM (active) | 35 µM (inactive) | 18.1 µM (inactive) | 26.7 µM (inactive) | 11.6 µM (inactive) | 47.3 µM (inactive) | 29 µM (inactive) | 23.9 µM (inactive) | 20.6 µM (inactive) | 55.1 µM (inactive)
CCN(CC)c1c(N(CC)CC)c(=O)c1=O | > 100 µM (inactive) | 9.71 µM (inactive) | 18 µM (inactive) | 24.4 µM (inactive) | 22.5 µM (inactive) | 7.55 µM (inactive) | 9.1 µM (inactive) | 29.9 µM (inactive) | 18.2 µM (inactive) | 1.88 µM (inactive) | 8.05 µM (inactive) | 2.23 µM (inactive) | > 63.8 µM (inactive) | 10.3 µM (inactive) | 11.8 µM (inactive) | 3.1 µM (inactive) | 20.7 µM (inactive) | 9.31 µM (inactive) | 3.18 µM (inactive) | 14.9 µM (inactive)
NC(Cn1ccc(=O)c(O)c1)C(=O)O (stereo not given) [MIMOSINE] | > 100 µM (inactive) | > 100 µM (inactive) | > 100 µM (inactive) | > 100 µM (inactive) | > 100 µM (inactive) | > 100 µM (inactive) | > 100 µM (inactive) | > 100 µM (inactive) | > 100 µM (inactive) | > 100 µM (inactive) | > 100 µM (inactive) | 81.5 µM (inactive) | > 100 µM (inactive) | > 100 µM (inactive) | > 100 µM (inactive) | 72.6 µM (inactive) | > 100 µM (inactive) | > 100 µM (inactive) | > 100 µM (inactive) | > 100 µM (inactive)
